Among the data in the Kinase Knowledgebase extract (Sharma et al. 2016) are IC50 values, retold here.

SMILES strings stand for the structures. A value given as a limit tells only on which side of the number the result lay.

The target in the test is ROCK2 (human) (UniProt O75116). The experiment in a line: Inhibition of ROCK2 Kinase Activity.
Sequence of ROCK2 (human) (O75116 whole entry, looked up): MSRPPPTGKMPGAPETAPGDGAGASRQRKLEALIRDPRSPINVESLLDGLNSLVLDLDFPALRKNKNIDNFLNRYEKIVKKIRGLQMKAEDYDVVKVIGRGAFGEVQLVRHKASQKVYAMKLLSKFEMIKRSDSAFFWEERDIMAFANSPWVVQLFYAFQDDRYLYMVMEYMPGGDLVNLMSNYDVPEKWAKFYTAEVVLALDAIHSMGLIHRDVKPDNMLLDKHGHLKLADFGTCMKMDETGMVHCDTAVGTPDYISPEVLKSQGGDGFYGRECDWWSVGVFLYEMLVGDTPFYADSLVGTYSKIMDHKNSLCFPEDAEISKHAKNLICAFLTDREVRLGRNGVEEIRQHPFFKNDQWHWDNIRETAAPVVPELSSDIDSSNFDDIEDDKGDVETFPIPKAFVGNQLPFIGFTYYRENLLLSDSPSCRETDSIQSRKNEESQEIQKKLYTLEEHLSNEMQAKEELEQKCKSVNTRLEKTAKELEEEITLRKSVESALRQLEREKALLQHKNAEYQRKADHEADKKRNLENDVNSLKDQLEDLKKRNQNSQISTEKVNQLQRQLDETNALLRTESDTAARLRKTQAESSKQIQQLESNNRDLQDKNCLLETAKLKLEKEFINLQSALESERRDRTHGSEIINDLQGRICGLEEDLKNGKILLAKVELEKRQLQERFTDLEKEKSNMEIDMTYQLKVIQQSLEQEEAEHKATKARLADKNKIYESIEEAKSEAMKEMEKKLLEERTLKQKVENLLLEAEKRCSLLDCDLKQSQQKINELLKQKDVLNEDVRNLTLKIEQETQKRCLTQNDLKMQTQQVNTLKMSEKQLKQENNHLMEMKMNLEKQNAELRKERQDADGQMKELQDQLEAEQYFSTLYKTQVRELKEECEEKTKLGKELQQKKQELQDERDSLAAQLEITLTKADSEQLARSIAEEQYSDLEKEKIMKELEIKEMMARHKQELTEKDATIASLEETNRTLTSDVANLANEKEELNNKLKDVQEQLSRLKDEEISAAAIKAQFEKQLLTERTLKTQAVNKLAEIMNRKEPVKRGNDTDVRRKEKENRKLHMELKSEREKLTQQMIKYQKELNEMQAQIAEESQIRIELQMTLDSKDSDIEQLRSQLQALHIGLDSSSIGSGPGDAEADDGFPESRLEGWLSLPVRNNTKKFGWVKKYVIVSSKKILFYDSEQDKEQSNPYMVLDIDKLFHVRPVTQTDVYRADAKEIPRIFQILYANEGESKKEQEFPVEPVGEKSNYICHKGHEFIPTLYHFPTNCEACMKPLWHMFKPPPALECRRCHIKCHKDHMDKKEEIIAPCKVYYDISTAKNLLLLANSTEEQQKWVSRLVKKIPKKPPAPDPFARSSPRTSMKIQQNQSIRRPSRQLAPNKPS
For the compound `CNC(C(=O)Nc1ccc2c(=O)[nH]cnc2c1)c1ccccc1` (configuration not stated), the IC50 is less than 1000 nM. Compound `CS(=O)(=O)CC(=O)Nc1cc2cc[nH]c(=O)c2cc1Cl` returned an IC50 of less than 1000 nM.

Compound `O=C(CNCC1CC1)Nc1ccc2c(=O)[nH]cnc2c1` gave a half-maximal inhibitory concentration (IC50) of less than 1000 nM. As to `O=C(Nc1cc2cc[nH]c(=O)c2cc1Cl)c1cccc2c1CNCC2`, the concentration for half-maximal inhibition (IC50) is less than 1000 nM. In turn, `N[C@H](CC1CCCCC1)C(=O)Nc1cc2cc[nH]c(=O)c2cc1Cl` displayed a concentration for half-maximal inhibition (IC50) of less than 1000 nM. The compound `CC(NCC1CCCCC1)C(=O)Nc1cc2cc[nH]c(=O)c2cc1Cl` (configuration not stated) came in with an IC50 of less than 1000 nM.

In turn, `NCCCS(=O)(=O)c1ccc(C(=O)Nc2cc3cc[nH]c(=O)c3cc2Cl)c(Cl)c1` registered a half-inhibitory concentration (IC50) of less than 1000 nM.

For the compound `O=C(Nc1ccc2c(=O)[nH]ccc2c1)c1cccnc1Sc1ccccc1`, the 50% inhibitory concentration (IC50) was less than 1000 nM. To `O=C(Nc1cc2cc[nH]c(=O)c2cc1Cl)C1CCN(Cc2ccncc2)CC1` belongs less than 1000 nM. The figure for `O=C(Nc1ccc2c(=O)[nH]ccc2c1)C1(c2ccc(Cl)cc2)CCCC1` is less than 1000 nM. To `CC(C)(N)C(=O)Nc1ccc2c(=O)[nH]ccc2c1` belongs less than 1000 nM; to `O=C(Nc1cc2cc[nH]c(=O)c2cc1Cl)c1ccc2c(c1)CNCC2`, less than 1000 nM. In turn, `O=C(Nc1ccc2c(=O)[nH]ccc2c1)[C@H]1CCCNC1` came in with an IC50 of less than 1000 nM. As to `N[C@H](Cc1ccc(Cl)cc1)C(=O)Nc1cc2cc[nH]c(=O)c2cc1Cl`, the IC50 was less than 1000 nM. With `O=C(Nc1ccc2c(=O)[nH]cnc2c1)C(NC1CC1)c1ccccc1` (configuration not stated), the 50% inhibitory concentration (IC50) was less than 1000 nM. For the compound `O=C(Nc1cc2cc[nH]c(=O)c2cc1Cl)[C@H]1CCCNC1`, the concentration for half-maximal inhibition (IC50) is less than 1000 nM.

Consider `CN(C)C(C(=O)Nc1ccc2c(=O)[nH]ccc2c1)c1ccccc1` (configuration not stated), for which the IC50 is less than 1000 nM. Compound `O=C(O)CC(C(=O)Nc1cc2cc[nH]c(=O)c2cc1Cl)c1ccccc1` (configuration not stated) had a half-inhibitory concentration (IC50) of less than 1000 nM. The figure for `O=c1[nH]ccc2cc(NC(=O)[C@H]3CC[C@@H](C(=O)O)CC3)c(Cl)cc12` is less than 1000 nM.

In turn, `C[C@](O)(C(=O)Nc1cc2nc[nH]c(=O)c2cc1Cl)c1ccc(Cl)cc1` came in with a half-inhibitory concentration (IC50) of less than 1000 nM.

Turning to `C[C@H]1CN(C)CC[C@@H]1C(=O)Nc1cc2cc[nH]c(=O)c2cc1Cl`, the concentration for half-maximal inhibition (IC50) is less than 1000 nM. `CN1CCC(C(=O)Nc2cc3cc[nH]c(=O)c3cc2Br)CC1` yielded a concentration for half-maximal inhibition (IC50) of less than 1000 nM. Take `O=C(Nc1cc2cc[nH]c(=O)c2cc1Cl)C(c1ccccc1)N1CCC(O)CC1` (configuration not stated): the IC50 was less than 1000 nM. Compound `C[C@](O)(C(=O)Nc1ccc2c(=O)[nH]cnc2c1)c1ccc(Cl)cc1` gave an IC50 of less than 1000 nM. As for `O=C(CNCC1CCOCC1)Nc1cc2cc[nH]c(=O)c2cc1Cl`, the IC50 was less than 1000 nM. The figure for `O=C(Nc1cc2cc[nH]c(=O)c2cc1Cl)C(NC1CCC1)c1ccccc1` (configuration not stated) is less than 1000 nM.

For the compound `O=C(Nc1cc2cc[nH]c(=O)c2cc1Cl)[C@H](O)c1ccccc1`, the IC50 is less than 1000 nM. With `N[C@H]1CCC[C@H](C(=O)Nc2cc3cc[nH]c(=O)c3cc2Cl)C1`, the 50% inhibitory concentration (IC50) was less than 1000 nM.

`CO[C@@H](C(=O)Nc1cc2cc[nH]c(=O)c2cc1Cl)c1ccccc1` returned an IC50 of less than 1000 nM. To `NC1(C(=O)Nc2ccc3c(=O)[nH]ccc3c2)CCCCC1` belongs less than 1000 nM; to `O=C(Nc1ccc2c(=O)[nH]ccc2c1Cl)[C@H]1CNC[C@@H]1c1ccccc1`, less than 1000 nM.

The compound `O=C(Nc1cc2cc[nH]c(=O)c2cc1Cl)[C@@H]1CCCCN1` showed an IC50 of less than 1000 nM. Consider `O=C(Nc1cc2cc[nH]c(=O)c2cc1Cl)c1ccc([N+](=O)[O-])cc1Cl`, for which the IC50 was less than 1000 nM. `O=C(Cc1ccc(F)cc1)Nc1cc2cc[nH]c(=O)c2cc1Cl` yielded a half-inhibitory concentration (IC50) of less than 1000 nM. The compound `O=C(Nc1ccc2c(=O)[nH]ccc2c1)c1cccnc1Oc1ccc(Cl)cc1` yielded an IC50 of less than 1000 nM. To `O=C(Nc1ccc2c(=O)[nH]ccc2c1)c1cccs1` belongs less than 1000 nM. The figure for `O=C(Nc1ccc2c(=O)[nH]cnc2c1)C1CCN(Cc2ccccc2)CC1` is less than 1000 nM; for `O=C(Nc1ccc2c(=O)[nH]cnc2c1)C1CCCN1` (configuration not stated) it is less than 1000 nM; for `N[C@H]1CC[C@](C(=O)Nc2cc3cc[nH]c(=O)c3cc2Cl)(c2ccc(Cl)cc2)CC1` it is less than 1000 nM. For the compound `CC(C)O[C@@H](C(=O)Nc1cc2cc[nH]c(=O)c2cc1Cl)c1ccccc1`, the 50% inhibitory concentration (IC50) is less than 1000 nM. To `O=C(CNCc1ccccc1)Nc1ccc2c(=O)[nH]cnc2c1` belongs less than 1000 nM; to `Cc1ccc(F)cc1C(=O)Nc1cc2cc[nH]c(=O)c2cc1Cl`, less than 1000 nM; to `O=C(Nc1cc2cc[nH]c(=O)c2cc1Cl)c1ccc(Br)cc1Cl`, less than 1000 nM.

In the case of `Cc1cc([N+](=O)[O-])ccc1C(=O)Nc1cc2cc[nH]c(=O)c2cc1Cl`, the IC50 was less than 1000 nM. As for `CCOC(=O)CC(=O)Nc1cc2cc[nH]c(=O)c2cc1Cl`, the IC50 was less than 1000 nM. `CN1CCN(Cc2ccccc2C(=O)Nc2cc3cc[nH]c(=O)c3cc2Cl)CC1` showed an IC50 of less than 1000 nM. Take `CC(C)(C)C(=O)Nc1cc2cc[nH]c(=O)c2cc1Cl`: the concentration for half-maximal inhibition (IC50) was less than 1000 nM.

With `CC(=O)OC(C(=O)Nc1cc2cc[nH]c(=O)c2cc1Cl)c1ccccc1` (configuration not stated), the IC50 was less than 1000 nM. `O=C(Nc1cc2cc[nH]c(=O)c2cc1Cl)C(NCC1CC1)c1ccccc1` (configuration not stated): the concentration for half-maximal inhibition (IC50) is less than 1000 nM.

For the compound `CCN(C)C(C(=O)Nc1cc2cc[nH]c(=O)c2cc1Cl)c1ccccc1` (configuration not stated), the half-maximal inhibitory concentration (IC50) was less than 1000 nM. In turn, `CS(=O)(=O)c1ccc(C(=O)Nc2cc3cc[nH]c(=O)c3cc2Cl)cc1` showed a half-inhibitory concentration (IC50) of less than 1000 nM. The figure for `CC(C)(C(=O)Nc1cc2cc[nH]c(=O)c2cc1Cl)c1ccccc1` is less than 1000 nM; for `O=C(Nc1cc2cc[nH]c(=O)c2cc1Cl)C1CCOCC1` it is less than 1000 nM; for `C[C@H]1CNCC[C@@H]1C(=O)Nc1cc2cc[nH]c(=O)c2cc1Cl` it is less than 1000 nM. Compound `COc1cc2c(=O)[nH]ccc2cc1NC(=O)[C@H](N)C1CCCCC1` came in with an IC50 of less than 1000 nM.

In the case of `CN1CCC(C(=O)Nc2cc3cc[nH]c(=O)c3cc2C#N)CC1`, the IC50 is less than 1000 nM. To `O=C(Nc1cc2cc[nH]c(=O)c2cc1Cl)C1(c2ccc(Cl)cc2)CCNCC1` belongs less than 1000 nM. As to `CSCCC(=O)Nc1cc2cc[nH]c(=O)c2cc1Cl`, the concentration for half-maximal inhibition (IC50) is less than 1000 nM. The figure for `CC[C@@H](C)[C@H](N)C(=O)Nc1cc2cc[nH]c(=O)c2cc1Cl` is less than 1000 nM; for `O=C(Nc1cc2cc[nH]c(=O)c2cc1Cl)[C@@H](O)C1CCCCC1` it is less than 1000 nM. Compound `N[C@H]1CC[C@@](C(=O)Nc2cc3cc[nH]c(=O)c3cc2Cl)(c2ccc(Cl)cc2)CC1` came in with an IC50 of less than 1000 nM. To `C[C@H]1CC(=O)CC[C@@H]1C(=O)Nc1cc2cc[nH]c(=O)c2cc1Cl` belongs less than 1000 nM; to `O=C(CN[C@]12C[C@H]3C[C@H](C[C@H](C3)C1)C2)Nc1cc2cc[nH]c(=O)c2cc1Cl`, less than 1000 nM. The figure for `O=C(Nc1cc2cc[nH]c(=O)c2cc1Cl)c1c(F)cc(F)cc1F` is less than 1000 nM; for `O=C(CNCc1ccncc1)Nc1cc2cc[nH]c(=O)c2cc1Cl` it is less than 1000 nM; for `N[C@@H](C(=O)Nc1ccc2c(=O)[nH]ccc2c1)c1ccc(Cl)cc1` it is less than 1000 nM. The figure for `O=C(CNC1CCCc2ccccc21)Nc1cc2cc[nH]c(=O)c2cc1Cl` (configuration not stated) is less than 1000 nM; for `C[C@@H](Oc1ccccc1)C(=O)Nc1cc2cc[nH]c(=O)c2cc1Cl` it is less than 1000 nM. The compound `O=C(O)C(C(=O)Nc1cc2cc[nH]c(=O)c2cc1Cl)c1ccccc1` (configuration not stated) had an IC50 of less than 1000 nM. Consider `CCN(CCN(C)C)C(C(=O)Nc1cc2cc[nH]c(=O)c2cc1Cl)c1ccccc1` (configuration not stated), for which the IC50 is less than 1000 nM. In turn, `Cc1cc(S(C)(=O)=O)ccc1C(=O)Nc1cc2cc[nH]c(=O)c2cc1Cl` gave a concentration for half-maximal inhibition (IC50) of less than 1000 nM.

`O=C(Nc1cc2cc[nH]c(=O)c2cc1Cl)C1(Cc2ccccc2)CCNCC1` yielded an IC50 of less than 1000 nM.

As for `O=C(Nc1cc2cc[nH]c(=O)c2cc1Cl)c1ccc2c(c1)CCNC2`, the IC50 is less than 1000 nM.

`NC(C(=O)Nc1cc2cc[nH]c(=O)c2cc1Cl)c1cccc(Cl)c1` (configuration not stated) returned an IC50 of less than 1000 nM. On to `O=C(Nc1cc2cc[nH]c(=O)c2cc1Cl)[C@H]1CCCCN1`, for which the half-inhibitory concentration (IC50) was less than 1000 nM. In turn, `CC(=O)O[C@H]1CC[C@@H](C(=O)Nc2cc3cc[nH]c(=O)c3cc2Cl)CC1` gave an IC50 of less than 1000 nM. To `COc1cc2c(=O)[nH]ccc2cc1NC(=O)[C@H](OC)c1ccccc1` belongs less than 1000 nM. On to `O=C(Nc1cc2cc[nH]c(=O)c2cc1Cl)[C@H](O)c1cccc(Cl)c1`, for which the IC50 is less than 1000 nM. To `CN(C)C(C(=O)Nc1cc2nc[nH]c(=O)c2cc1Cl)c1ccccc1` (configuration not stated) belongs less than 1000 nM; to `O=C(Nc1cc2cc[nH]c(=O)c2cc1Cl)[C@H](O)c1ccccc1Cl`, less than 1000 nM.

The compound `Cc1ccccc1C(=O)Nc1cc2cc[nH]c(=O)c2cc1Cl` gave a half-maximal inhibitory concentration (IC50) of less than 1000 nM. The figure for `O=C(Nc1cc2cc[nH]c(=O)c2cc1Cl)c1cc([N+](=O)[O-])ccc1Cl` is less than 1000 nM; for `O=C(Nc1ccc2c(=O)[nH]cnc2c1)C1CCNCC1` it is less than 1000 nM; for `NC(Cc1ccc(F)cc1)C(=O)Nc1cc2cc[nH]c(=O)c2cc1Cl` (configuration not stated) it is less than 1000 nM.

`CN(C)CC(=O)Nc1ccc2c(=O)[nH]ccc2c1` came in with a concentration for half-maximal inhibition (IC50) of less than 1000 nM. The figure for `COc1cc2c(=O)[nH]ccc2cc1NC(=O)[C@@H](OC)c1ccccc1` is less than 1000 nM; for `O=C(Nc1cc2cc[nH]c(=O)c2cc1Cl)C1(c2ccccc2)CCNCC1` it is less than 1000 nM. The compound `CNC(C)(C)C(=O)Nc1ccc2c(=O)[nH]ccc2c1` registered a concentration for half-maximal inhibition (IC50) of less than 1000 nM.

`CSCC(=O)Nc1cc2cc[nH]c(=O)c2cc1Cl` yielded a 50% inhibitory concentration (IC50) of less than 1000 nM.

Take `N#CCC(=O)Nc1cc2cc[nH]c(=O)c2cc1Cl`: the IC50 was less than 1000 nM. To `Cc1ccc(C(=O)Nc2cc3cc[nH]c(=O)c3cc2Cl)c(Br)c1` belongs less than 1000 nM; to `N[C@H]1C[C@H](C(=O)Nc2cc3cc[nH]c(=O)c3cc2Cl)C1`, less than 1000 nM.

With `N[C@H](Cc1ccccc1)C(=O)Nc1ccc2c(=O)[nH]cnc2c1`, the IC50 was less than 1000 nM.

Compound `Cc1cc(S(=O)(=O)N2CCNCC2)ccc1C(=O)Nc1cc2cc[nH]c(=O)c2cc1Cl` displayed an IC50 of less than 1000 nM. To `O=C(Nc1cc2cc[nH]c(=O)c2cc1Cl)c1cccnc1Sc1ccccc1` belongs less than 1000 nM; to `O=C(Nc1cc2cc[nH]c(=O)c2cc1Cl)C(=O)c1ccccc1`, less than 1000 nM; to `CC1(C(=O)Nc2cc3cc[nH]c(=O)c3cc2Cl)CCNCC1`, less than 1000 nM.

As a reminder, the IC50 is the concentration needed to halve the response being measured. A lower IC50 goes with inhibition by little substance.
